Our source for the RP-LC retention time values is the METLIN SMRT retention time set (Domingo-Almenara et al. 2019).

The data set in a line: gradient 5% acetonitrile 3 min, to 50% in 2 min, to 85% in 15 min, held 3 min, 100 µL/min. To be noted: column: Zorbax Extend-C18 2.1 x 50 mm; eluents: water / acetonitrile, 0.1% formic acid. In a few lines:
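A Zorbax Extend-C18 column (2.1 × 50 mm, 1.8 μm) run at 100 μL/min with water and acetonitrile, both containing 0.1% formic acid, separated mixtures of ~100 pure standards. The HPLC was coupled to a quadrupole time-of-flight mass spectrometer operated in positive and negative ionization mode, with dead and dwell volumes of 40 μL and 900 μL. Each retention time was taken from a computationally picked adduct peak that was then manually inspected.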
In turn, `O=C(Cn1c(C(F)(F)F)nc2cc3c(cc21)OCCO3)N1CCOCC1` had an RP-LC retention time of 682 s.
Next, `Cc1cccc(CC(=O)N2C[C@@H]3C[C@H]2C[C@@H]3NS(C)(=O)=O)c1`: 673 s; `COc1ccccc1C(=O)N1CCC2(C1)C(=O)N(C)c1ccccc12` (stereo not given): 738 s; `Cc1cccc(OCCn2c(CCO)nc3ccccc32)c1C`: 599 s.
The same measure for `O=C(C1CCN(c2nc(-c3ccc(Cl)cc3)no2)CC1)N1CCN(c2ncccn2)CC1`: 968 s; for `COC(=O)c1cc(S(=O)(=O)N2CCCC2C(=O)NCc2ccc(C)cc2)cn1C` (stereo not given): 939 s; for `Cc1cc(C(F)(F)F)nn1CC(=O)NCC12CCC=C1N(C)C(=O)CC2` (stereo not given): 739 s.
The same measure for `CCCN(CCC)C(=O)c1cc2c(s1)N(C)CCCC2`: 1150 s.
The compound `N#Cc1ccc(NC(=O)c2noc3c2CCCCC3)cc1` displayed an RP-LC retention time of 995 s.
Next, `COc1ccccc1CCC(=O)NC1(c2nc(-c3cccnc3)no2)CCCCC1`: 956 s.
Next, `CCn1c(=O)c(N2CCN(C(=O)Nc3cccc(SC)c3)CC2)nc2ccccc21`: 928 s.
In turn, `Cc1ccnc(N2CCCC(C(=O)NC3CCCCC3)C2)n1` (stereo not given) yielded an RP-LC retention time of 709 s.
On to `CCCNC(=O)C1CCN(c2ccc(SCC(=O)Nc3ccc(OCC)cc3)nn2)CC1`, for which the RP-LC retention time came to 639 s.
The same measure for `NC(=O)c1c(N)c(C(=O)c2cccc([N+](=O)[O-])c2)n2ccccc12`: 649 s; for `O=C(c1cccc(Br)c1)N1CCc2nc[nH]c2C1`: 595 s.
`Oc1cc2c(cc1O)C(c1ccccc1)CNCC2` (stereo not given) had an RP-LC retention time of 585 s.
In the case of `CCOCCCNC(=O)N1CCN(Cc2nc3cc(C(=O)N(C)C)ccc3n2CC)CC1`, the RP-LC retention time turned out to be 581 s.
Next, `CC(C)CC(NC(=O)c1cccs1)C(=O)Nc1nc2ccccc2[nH]1` (stereo not given): 703 s; `N#Cc1ccc(C(=O)N2CCN(S(=O)(=O)c3cc(-c4noc(C5CCC5)n4)cs3)CC2)cc1`: 975 s.
In turn, `CC(NC(=O)C1=CCN(Cc2ccc(F)cc2)CC1)c1ccccc1` (stereo not given) gave an RP-LC retention time of 640 s.
Next, `Cc1cc(S(=O)(=O)Nc2cccnc2)c(Cl)cc1Cl`: 714 s.
`Cc1cc(CN2CCC(CNC(=O)C(=O)NCc3ccc4c(c3)OCO4)CC2)c(C)o1`: the RP-LC retention time stood at 583 s.
Next, `CCc1nnc2ccc(-c3noc(-c4ccc(Cl)cc4)n3)cn12`: 1050 s; `CC(C)n1c(N2CCCN(C(=O)c3cccs3)CC2)cc(=O)n(C(C)C)c1=O`: 794 s.
The compound `Cc1ccc(CCNC(=O)c2nc(N3CCOCC3)c3ccccc3n2)cc1` gave an RP-LC retention time of 729 s.
As for `CCCN1CCN(C(=O)CN2CCN(Cc3ccccc3)C2=O)CC1`, the RP-LC retention time was 578 s.
Next, `CN(C)S(=O)(=O)c1ccc(Oc2ccc(S(=O)(=O)N(C)C)cc2)cc1`: 824 s; `Cc1cccc(-c2nc(Cn3nnc(-c4nc(-c5cccc(Cl)c5)no4)c3C)c(C)o2)c1`: 1300 s; `Cc1ccc(-n2c(=O)c3sccc3n(Cc3nc(-c4ccccc4)no3)c2=O)cc1`: 985 s.
The compound `O=C1CCCCC(Cc2ccccc2)(C(=O)NC2CCS(=O)(=O)C2)N1` (stereo not given) came in with an RP-LC retention time of 656 s.
Consider `CCN1CCN(c2cc(C)c3cc(NC(=O)c4ccco4)ccc3n2)CC1`, for which the RP-LC retention time was determined as 560 s.
Turning to `Cc1cc(Nc2nc(N[C@@H](C)c3ncc(F)cn3)ncc2Cl)n[nH]1`, the RP-LC retention time worked out at 622 s.
On to `O=C(Nc1nccnc1C(=O)NCCN1CCOCC1)c1ccccc1`, for which the RP-LC retention time amounted to 569 s.
The same measure for `O=C(CS(=O)Cc1cnn(-c2ccccc2)c1-n1cccc1)N1CCC(Cc2ccccc2)CC1` (stereo not given): 1010 s.
The same measure for `c1coc(-c2nc3ccccc3c3nnc(SCc4cn5ccccc5n4)n23)c1`: 867 s; for `O=C([C@@H]1C[C@H](F)CN1C(=O)Cc1ccsc1)N1CCCCC1`: 657 s.
Consider `COc1cc(-c2ccc(F)cc2)nc2ccc(NS(=O)(=O)c3ccc(C#N)cc3)cc12`, for which the RP-LC retention time is 784 s.
The same measure for `CCN1CCN(S(=O)(=O)c2ccc(Cl)c(-c3nnc(-c4ccc(OC)cc4)o3)c2)CC1`: 677 s; for `CSc1ccc(-c2nc3cnccn3c2Nc2cccc(C(=O)NCC3CCCO3)c2)cc1` (stereo not given): 748 s.
`CCC(C(=O)NCC(=O)Nc1nc2ccccc2[nH]1)c1ccccc1` (stereo not given) showed an RP-LC retention time of 654 s.
Next, `CCc1nc(N2CCC(C(=O)NCc3cccc(C(F)(F)F)c3)CC2)c2c(C)scc2n1`: 786 s; `COc1ccc(CNc2ccc(-c3nc(-c4ccc(F)cc4)no3)cn2)cc1`: 1220 s; `CCCOc1ccc(C2NC(=O)NC(C)=C2C(=O)OCC(F)(F)F)cc1OC` (stereo not given): 808 s.
`CCn1c(=O)c(N2CCCC(C(=O)N3CCN(C(=O)c4ccco4)CC3)C2)nc2ccccc21` (stereo not given): the RP-LC retention time is 832 s.
Next, `O=C(Cn1nc2n(c1=O)CCCCC2)Nc1ccc(Cl)cc1`: 730 s; `CN1CCC2(CC1)CN(C(=O)C1CCC1)Cc1ccccc1O2`: 619 s.
Next, `CCn1c(=O)c(C(=O)NCc2cccc(F)c2)nc2cccnc21`: 797 s; `CCOc1ccccc1NC(=O)C(CC)n1cnc2nc3c(cc2c1=O)CCCC3` (stereo not given): 919 s.
Next, `N#Cc1ccc(S(=O)(=O)NC2CCc3nn(CC4CC4)c(=O)n3CC2)cc1` (stereo not given): 616 s; `CC(C)n1cnc(S(=O)(=O)N2CCC(C(=O)Nc3ccc(F)cc3F)CC2)c1`: 728 s; `COc1ccccc1NC(=O)C1CCc2nc(N3CCCCC3)ncc2C1` (stereo not given): 811 s.
As to `COc1ccc(N2CC(c3noc(-c4ccc5c(c4)OCO5)n3)CC2=O)cc1OC` (stereo not given), the RP-LC retention time is 770 s.
The same measure for `Cc1ccccc1C1CCCN1C(=O)c1ccnn1C` (stereo not given): 768 s; for `OC(CN1CCN(c2ccccn2)CC1)c1ccc(Cl)cc1` (stereo not given): 563 s.
Compound `CCCCNC(=O)Cn1nc2c3cc(-c4ccccc4)nn3ccn2c1=O` yielded an RP-LC retention time of 807 s.
For `c1ccc(Cn2c(-c3ccc(OC[C@H](C4CCNCC4)n4c(-c5ccccc5)nc5ccccc54)cc3)nc3ccccc32)cc1`, the RP-LC retention time was 692 s.
As for `COc1ccc(C)cc1NC(=O)NC1CCN(c2ccc(F)cc2)C1=O` (stereo not given), the RP-LC retention time came out at 855 s.
Regarding `CCc1nc2c(c(=O)n1CC(=O)NC1CCCC1)CN(Cc1ccccc1)CC2`, the RP-LC retention time was found to be 621 s.
The same measure for `Cc1cc(C)cc(NC(=O)Nc2nccn(-c3ccc(Br)cc3)c2=O)c1`: 1130 s; for `Cc1ccc(-c2nnc(N3CCC(C(=O)NCC4CCCCC4)CC3)o2)cc1`: 959 s.
